Data published in ChEMBL document CHEMBL4680201, “Design, synthesis, and pharmacological evaluation of 4- or 6-phenyl-pyrimidine derivatives as novel and selective Janus kinase 3 inhibitors” (Eur J Med Chem, 2020).
Calls of active or inactive are those of the source. No cut-off for these calls is given here.

Key:
[1] = target: T1, Tyrosine-protein kinase JAK3 (Mus musculus) (UniProt Q62137); experiment: Inhibition of JAK3 in anti-CD3/-CD28 coated mouse T cells assessed as reduction in IL15-induced STAT5 phosphorylation preincubated for 1 hr followed by […] and measured after 30 mins by Western blot analysis; settings: T cell
T1 sequence (whole entry): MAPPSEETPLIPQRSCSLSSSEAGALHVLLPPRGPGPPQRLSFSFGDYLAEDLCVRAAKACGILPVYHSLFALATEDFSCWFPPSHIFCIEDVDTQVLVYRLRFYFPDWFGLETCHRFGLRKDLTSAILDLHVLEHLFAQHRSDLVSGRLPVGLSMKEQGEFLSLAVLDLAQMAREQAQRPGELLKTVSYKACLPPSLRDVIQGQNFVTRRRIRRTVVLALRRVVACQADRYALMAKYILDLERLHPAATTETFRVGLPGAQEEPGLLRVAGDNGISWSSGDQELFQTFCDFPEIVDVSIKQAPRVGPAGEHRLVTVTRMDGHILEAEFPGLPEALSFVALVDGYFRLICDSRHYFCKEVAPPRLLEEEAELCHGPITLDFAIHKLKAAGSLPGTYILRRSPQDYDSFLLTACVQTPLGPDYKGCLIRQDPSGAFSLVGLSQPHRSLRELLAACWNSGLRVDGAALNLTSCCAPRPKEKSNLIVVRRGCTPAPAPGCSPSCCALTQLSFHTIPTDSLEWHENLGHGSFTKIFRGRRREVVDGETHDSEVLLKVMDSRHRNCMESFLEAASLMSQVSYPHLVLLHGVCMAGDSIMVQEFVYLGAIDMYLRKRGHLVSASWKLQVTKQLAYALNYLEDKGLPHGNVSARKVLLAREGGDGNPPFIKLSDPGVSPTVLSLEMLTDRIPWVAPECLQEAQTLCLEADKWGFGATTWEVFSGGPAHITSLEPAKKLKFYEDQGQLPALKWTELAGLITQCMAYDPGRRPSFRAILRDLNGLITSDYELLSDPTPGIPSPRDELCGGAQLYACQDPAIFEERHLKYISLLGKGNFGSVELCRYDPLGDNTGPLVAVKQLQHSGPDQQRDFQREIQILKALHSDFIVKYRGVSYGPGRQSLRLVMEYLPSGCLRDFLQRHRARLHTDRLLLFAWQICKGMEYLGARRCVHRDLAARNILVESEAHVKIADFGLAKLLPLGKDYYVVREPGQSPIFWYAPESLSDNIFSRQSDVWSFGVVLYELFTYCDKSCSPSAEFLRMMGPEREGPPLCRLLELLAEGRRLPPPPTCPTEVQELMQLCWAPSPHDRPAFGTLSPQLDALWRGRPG

Mus musculus = experiment: Immunosuppressive activity in po dosed Balb/c mouse model of oxazolone-induced delayed type hypersensitivity assessed as reduction in ear swelling measured after 7 days; format: functional, organism-based; settings: time 7.0 day
[2] = Toxicity in Balb/c mouse model of oxazolone-induced delayed type hypersensitivity assessed as change in microscopic examination up to 30 mg/kg, po; format: organism-based; settings: in vivo
[3] = target: T2, Tyrosine-protein kinase JAK3 (Homo sapiens) (UniProt P52333)
T2 sequence (whole entry): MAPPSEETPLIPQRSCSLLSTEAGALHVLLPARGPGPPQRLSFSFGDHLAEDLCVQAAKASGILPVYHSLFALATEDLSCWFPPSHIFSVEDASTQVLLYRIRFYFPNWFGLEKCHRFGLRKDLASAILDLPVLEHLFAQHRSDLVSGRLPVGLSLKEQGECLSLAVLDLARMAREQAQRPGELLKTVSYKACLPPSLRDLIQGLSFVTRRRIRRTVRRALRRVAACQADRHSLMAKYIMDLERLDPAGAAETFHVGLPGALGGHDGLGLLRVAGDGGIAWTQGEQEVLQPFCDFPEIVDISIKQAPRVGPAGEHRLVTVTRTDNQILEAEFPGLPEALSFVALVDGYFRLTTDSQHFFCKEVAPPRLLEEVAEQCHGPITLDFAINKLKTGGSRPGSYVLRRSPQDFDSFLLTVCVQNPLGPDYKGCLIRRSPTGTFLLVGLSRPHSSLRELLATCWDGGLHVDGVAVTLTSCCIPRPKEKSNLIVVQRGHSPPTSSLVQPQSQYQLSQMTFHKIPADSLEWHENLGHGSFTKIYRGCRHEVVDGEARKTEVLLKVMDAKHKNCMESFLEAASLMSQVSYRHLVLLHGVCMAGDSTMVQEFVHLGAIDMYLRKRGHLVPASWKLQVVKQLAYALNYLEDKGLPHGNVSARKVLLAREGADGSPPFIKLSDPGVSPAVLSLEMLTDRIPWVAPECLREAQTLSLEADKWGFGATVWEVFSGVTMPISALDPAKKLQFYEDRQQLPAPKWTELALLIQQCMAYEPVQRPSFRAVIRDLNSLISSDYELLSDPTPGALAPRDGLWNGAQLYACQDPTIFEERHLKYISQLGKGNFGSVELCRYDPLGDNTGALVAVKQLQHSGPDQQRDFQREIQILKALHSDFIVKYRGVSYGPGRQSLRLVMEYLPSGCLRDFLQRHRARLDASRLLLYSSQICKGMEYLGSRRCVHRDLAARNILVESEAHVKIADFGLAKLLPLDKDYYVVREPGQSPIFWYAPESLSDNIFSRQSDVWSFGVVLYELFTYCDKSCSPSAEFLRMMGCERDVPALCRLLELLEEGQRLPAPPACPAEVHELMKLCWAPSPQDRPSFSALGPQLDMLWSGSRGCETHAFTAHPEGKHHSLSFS

inhibition [1]: Dose-dependent effect | TDI [3]: Active
SMILES: C=CC(=O)Nc1ccc(-c2ccnc(Nc3ccc(N4CCOCC4)cc3)n2)cc1
Activity (Mus musculus): Dose-dependent effect | Activity [2]: Non-Toxic
